Our source for the EC50 values is US12478624B2, “Heterocyclic derivatives, pharmaceutical compositions and their use in the treatment or amelioration of cancer” (Tolremo Therapeutics AG, priority 2019, dated 2025).

One assay concerns A375 cells. Nature of the assay: Assay 1: A375 cells treated with S1152, S1008 and compound, immunofluorescence (sc-365823) signal. The assay is classed as cell-based. The settings on record: 1 μM S1152 + 0.5 μM S1008, one day. The essentials: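 A375 cells treated one day with 1 μM S1152, 0.5 μM S1008 and compound dose ranges in DMEM/10% FCS, then fixed, permeabilised and immunostained. Green signal normalised to nuclear counterstain (ethidium-type or DAPI), log ratio fitted by four-parameter regression for EC50.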

For the next assay, the system named is OPM-2. Nature of the assay: Assay 2: multiple myeloma cellular efficacy, PrestoBlue cell proliferation/survival. Type of assay: cell-based. To be noted: Homo sapiens, 96 h, OPM-2 cells, 4 days. A digest of the protocol: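 Cells seeded at 10000/well and exposed to a compound dose range or vehicle for 4 days, then stained with PrestoBlue for 2 h at 37 °C. Fluorescence was background-subtracted and normalized to vehicle; EC50 came from a four-parameter variable-slope fit against log concentration.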

In a further assay the target is T1, CBP Bromodomain (Homo sapiens, UniProt Q92793).
T1 construct: purchased Cayman chemicals 600850
T1 sequence (Q92793 1085-1192 limits assumed): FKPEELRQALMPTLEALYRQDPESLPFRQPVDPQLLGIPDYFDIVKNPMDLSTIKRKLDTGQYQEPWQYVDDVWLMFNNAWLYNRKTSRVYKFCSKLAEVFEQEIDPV
Briefly: Assay 3: CBP bromodomain binding assay (TR-FRET). The protocol:
Assay 3 CBP Bromodomain Binding Assay (TR-FRET)
Compounds solutions of 10 mM in DMSO were pre-diluted in DSMO to 25× stock solutions in DMSO. These were then diluted down to 4× in assay buffer. A dilution series in assay buffer was performed keeping the DMSO concentration stable. 5 μl compound in assay buffer was transferred into the assay plate (provided by assay kit) and the TR-FRET assay Cayman chemicals; 600850) was performed using the manufactor's instructions. After 1 hour incubation at room temperature in the darks, assay plates were read in a Tecan M1000 plate reader or a Tecan Spaks reader using the TR-FRET mode (top read; excitation 340 nm bandwidth […]; emission 620 nm bandwidth […]; gain optimal determined for the first well, number of flashes: 5; flash frequency 100 Hz; integration time: 500 μs, lag time: 100 μs, room temperature). The TR-FRET ratio was calculated by deviding 670 nm emission by 620 nm emission. Values were log transformed and non-linear regression with variable slope (4 parameters) was used to fit values to a dose-response curve to evaluate EC50 values.
For orientation: TR-FRET usually uses a lanthanide donor and a delayed reading to cut background.

SMILES strings stand for the structures.

What is called EC50 is the midpoint of the concentration-response curve. In the case of `CC(=O)N1C[C@H](c2nc(Nc3cc(C)nc(F)c3)cc(-c3cnccn3)n2)CC[C@@H]1C` [Compound 00149, 1-((2S,5R)-5-(4-((2-fluoro-6-methylpyridin-4-yl)amino)-6-(pyrazin-2-yl)pyrimidin-2-yl)-2-methylpiperidin-1-yl)ethan1-one], the EC50 in the assay on A375 cells, in the assay with OPM-2 and at CBP Bromodomain was < 200 nM each time.

Consider `CC(=O)N1C[C@H](c2nc(Nc3cc(C)nc(N4CCOCC4)c3)cc(-c3cnccn3)n2)CC[C@@H]1C` [Compound 00152, 1-((2S,5R)-2-methyl-5-(4-((2-methyl-6-morpholinopyridin-4-yl)amino)-6-(pyrazin-2-yl)pyrimidin-2-yl)piperidin-1-yl)ethan-1-one], for which the half-maximal effective concentration (EC50) in the assay with A375 cells is < 200 nM; in the assay with OPM-2, 200 to 1000 nM; at CBP Bromodomain it was < 200 nM.

In the case of `CC(=O)N1C[C@H](c2nc(Nc3ccnc(C(C)C)c3)cc(-c3cnccn3)n2)CC[C@@H]1C` [Compound 00153, 1-((2S,5R)-5-(4-((2-isopropylpyridin-4-yl)amino)-6-(pyrazin-2-yl)pyrimidin-2-yl)-2-methylpiperidin-1-yl)ethan-1-one], the values for the EC50 in the assay with A375 cells, in the assay on OPM-2 and at CBP Bromodomain were < 200 nM, 200 to 1000 nM and < 200 nM, respectively.

Consider `CC(=O)N1C[C@H](c2nc(Nc3ccnc(-c4cn(C)nn4)c3)cc(-c3cnccn3)n2)CC[C@@H]1C` [Compound 00168, 1-((2S,5R)-2-methyl-5-(4-((2-(1-methyl-1H-1,2,3-triazol-4-yl)pyridin-4-yl)amino)-6-(pyrazin-2-yl)pyrimidin-2-yl)piperidin-1-yl)ethan-1-one], for which the EC50 in the assay with A375 cells, in the assay with OPM-2 and at CBP Bromodomain was < 200 nM each time.
